# Test results taken from the supplement of paper PMC10307832.
# Key:
# Experiment in all cases: relative viability (nuclei count vs DMSO), 5 days (fraction); higher = more cells survive
# NCI-H2126 = tested on: NCI-H2126
# Procedure, shortened: (§1)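 Lung cancer cell lines were seeded in 1536-well plates and dosed by pin tool the next day, with either a single drug or a fixed anchor-drug dose combined with five library-drug doses (not always all listed) spaced in √10 steps. Five days later, one step fixed the cells and stained their nuclei (final 0.05% Triton X-100, 1% formaldehyde, 1 ug/ml Hoechst), and nuclei were counted on 4× images. Relative viability is the nuclei count in treated wells divided by the count in vehicle wells, and each value is the median of duplicate plates.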
# NCI-H1793 = tested on: NCI-H1793
# Procedure, shortened: as §1
# EPLC-272H = tested on: EPLC-272H
# Procedure, shortened: as §1
# EKVX = tested on: EKVX
# Procedure, shortened: as §1
# NCI-H322M = tested on: NCI-H322M
# Procedure, shortened: as §1
# EMC-BAC-2 = tested on: EMC-BAC-2
# Procedure, shortened: as §1
# NCI-H1651 = tested on: NCI-H1651
# Procedure, shortened: as §1
# LCLC-103H = tested on: LCLC-103H
# Procedure, shortened: as §1
# NCI-H2087 = tested on: NCI-H2087
# Procedure, shortened: as §1
# A-427 = tested on: A-427
# Procedure, shortened: as §1
# 201T = tested on: 201T
# Procedure, shortened: as §1
# NCI-H596 = tested on: NCI-H596
# Procedure, shortened: as §1
# NCI-H358 = tested on: NCI-H358
# Procedure, shortened: as §1
# NCI-H3122 = tested on: NCI-H3122
# Procedure, shortened: as §1
# BEN = tested on: BEN
# Procedure, shortened: as §1
# LXF-289 = tested on: LXF-289
# Procedure, shortened: as §1
# HCC-44 = tested on: HCC-44
# Procedure, shortened: as §1
structure (smiles),measurement,setting,value
C=C1C(=O)O[C@@H](CCCCCCCC)[C@@H]1C(=O)O [C-75] + NC(=O)Nc1cc(-c2cccc(F)c2)sc1C(=O)N[C@H]1CCCNC1 [AZD7762] (partner 0.2 µM),relative viability,NCI-H2126; first compound 0.08 µM,0.953
same,relative viability,NCI-H2126; first compound 0.253 µM,1.13
same,relative viability,NCI-H2126; first compound 0.8 µM,0.965
same,relative viability,NCI-H2126; first compound 2.53 µM,0.886
same,relative viability,NCI-H2126; first compound 8 µM,1.01
same,relative viability,NCI-H1793; first compound 0.08 µM,0.478
same,relative viability,NCI-H1793; first compound 0.253 µM,0.645
same,relative viability,NCI-H1793; first compound 2.53 µM,0.293
same,relative viability,NCI-H1793; first compound 8 µM,0.854
same,relative viability,EPLC-272H; first compound 0.08 µM,0.23
same,relative viability,EPLC-272H; first compound 0.253 µM,0.257
same,relative viability,EPLC-272H; first compound 0.8 µM,0.188
same,relative viability,EPLC-272H; first compound 2.53 µM,0.196
same,relative viability,EPLC-272H; first compound 8 µM,0.266
same,relative viability,EKVX; first compound 0.08 µM,0.683
same,relative viability,EKVX; first compound 0.253 µM,0.765
same,relative viability,EKVX; first compound 0.8 µM,0.498
same,relative viability,EKVX; first compound 8 µM,0.51
same,relative viability,NCI-H322M; first compound 0.08 µM,0.587
same,relative viability,NCI-H322M; first compound 0.253 µM,0.684
same,relative viability,NCI-H322M; first compound 0.8 µM,0.552
same,relative viability,NCI-H322M; first compound 8 µM,0.587
same,relative viability,EMC-BAC-2; first compound 0.08 µM,1.1
same,relative viability,EMC-BAC-2; first compound 0.253 µM,1.04
same,relative viability,EMC-BAC-2; first compound 0.8 µM,1.06
same,relative viability,EMC-BAC-2; first compound 2.53 µM,0.887
same,relative viability,EMC-BAC-2; first compound 8 µM,1.07
same,relative viability,NCI-H1651; first compound 0.08 µM,0.431
same,relative viability,NCI-H1651; first compound 0.253 µM,0.511
same,relative viability,NCI-H1651; first compound 0.8 µM,0.358
same,relative viability,NCI-H1651; first compound 2.53 µM,0.374
same,relative viability,NCI-H1651; first compound 8 µM,0.509
same,relative viability,LCLC-103H; first compound 0.08 µM,0.809
same,relative viability,LCLC-103H; first compound 0.253 µM,0.619
same,relative viability,LCLC-103H; first compound 0.8 µM,0.695
same,relative viability,LCLC-103H; first compound 2.53 µM,0.654
same,relative viability,LCLC-103H; first compound 8 µM,0.814
same,relative viability,NCI-H2087; first compound 0.08 µM,1.59
same,relative viability,NCI-H2087; first compound 0.253 µM,1.23
same,relative viability,NCI-H2087; first compound 0.8 µM,1.07
same,relative viability,NCI-H2087; first compound 2.53 µM,1.3
same,relative viability,NCI-H2087; first compound 8 µM,1.09
same,relative viability,A-427; first compound 0.08 µM,0.698
same,relative viability,A-427; first compound 0.253 µM,0.825
same,relative viability,A-427; first compound 0.8 µM,0.537
same,relative viability,A-427; first compound 2.53 µM,0.72
same,relative viability,A-427; first compound 8 µM,0.536
same,relative viability,201T; first compound 0.08 µM,0.588
same,relative viability,201T; first compound 0.253 µM,0.687
same,relative viability,201T; first compound 0.8 µM,0.631
same,relative viability,201T; first compound 2.53 µM,0.507
same,relative viability,201T; first compound 8 µM,0.566
same,relative viability,NCI-H596; first compound 0.08 µM,1.23
same,relative viability,NCI-H596; first compound 0.253 µM,1.12
same,relative viability,NCI-H596; first compound 0.8 µM,0.998
same,relative viability,NCI-H596; first compound 2.53 µM,0.975
same,relative viability,NCI-H596; first compound 8 µM,0.988
same,relative viability,NCI-H358; first compound 0.08 µM,0.55
same,relative viability,NCI-H358; first compound 0.253 µM,0.531
same,relative viability,NCI-H358; first compound 0.8 µM,0.454
same,relative viability,NCI-H358; first compound 2.53 µM,0.456
same,relative viability,NCI-H358; first compound 8 µM,0.477
same,relative viability,NCI-H3122; first compound 0.08 µM,1.03
same,relative viability,NCI-H3122; first compound 0.253 µM,1.09
same,relative viability,NCI-H3122; first compound 0.8 µM,0.951
same,relative viability,NCI-H3122; first compound 2.53 µM,0.883
same,relative viability,NCI-H3122; first compound 8 µM,1.03
same,relative viability,BEN; first compound 0.08 µM,0.676
same,relative viability,BEN; first compound 0.253 µM,0.729
same,relative viability,BEN; first compound 0.8 µM,0.589
same,relative viability,BEN; first compound 2.53 µM,0.633
same,relative viability,BEN; first compound 8 µM,0.627
same,relative viability,LXF-289; first compound 0.08 µM,1.07
same,relative viability,LXF-289; first compound 0.253 µM,1.21
same,relative viability,LXF-289; first compound 0.8 µM,1.02
same,relative viability,LXF-289; first compound 2.53 µM,1.07
same,relative viability,LXF-289; first compound 8 µM,1.21
same,relative viability,HCC-44; first compound 0.08 µM,1.03
same,relative viability,HCC-44; first compound 0.253 µM,1.05
same,relative viability,HCC-44; first compound 0.8 µM,0.999
same,relative viability,HCC-44; first compound 2.53 µM,0.953
same,relative viability,HCC-44; first compound 8 µM,1.08
Oc1nc(-c2ccc(C(F)(F)F)cc2)nc2c1CSCC2 [XAV939] + NC(=O)Nc1cc(-c2cccc(F)c2)sc1C(=O)N[C@H]1CCCNC1 [AZD7762] (partner 0.2 µM),relative viability,NCI-H2126; first compound 0.08 µM,1.04
same,relative viability,NCI-H2126; first compound 0.253 µM,0.912
same,relative viability,NCI-H2126; first compound 0.8 µM,0.943
same,relative viability,NCI-H2126; first compound 2.53 µM,0.882
same,relative viability,NCI-H1793; first compound 0.08 µM,0.989
same,relative viability,NCI-H1793; first compound 0.253 µM,0.307
same,relative viability,NCI-H1793; first compound 0.8 µM,0.355
same,relative viability,NCI-H1793; first compound 2.53 µM,0.312
same,relative viability,EPLC-272H; first compound 0.08 µM,0.229
same,relative viability,EPLC-272H; first compound 0.253 µM,0.18
same,relative viability,EPLC-272H; first compound 0.8 µM,0.193
same,relative viability,EPLC-272H; first compound 2.53 µM,0.0888
same,relative viability,EKVX; first compound 0.08 µM,0.685
same,relative viability,EKVX; first compound 0.253 µM,0.646
same,relative viability,EKVX; first compound 0.8 µM,0.362
same,relative viability,EKVX; first compound 2.53 µM,0.56
same,relative viability,NCI-H322M; first compound 0.08 µM,0.573
same,relative viability,NCI-H322M; first compound 0.253 µM,0.45
same,relative viability,NCI-H322M; first compound 0.8 µM,0.539
same,relative viability,NCI-H322M; first compound 2.53 µM,0.495
same,relative viability,EMC-BAC-2; first compound 0.08 µM,1.1
same,relative viability,EMC-BAC-2; first compound 0.253 µM,1.04
same,relative viability,EMC-BAC-2; first compound 0.8 µM,0.95
same,relative viability,EMC-BAC-2; first compound 2.53 µM,0.878
same,relative viability,NCI-H1651; first compound 0.08 µM,0.518
same,relative viability,NCI-H1651; first compound 0.253 µM,0.429
same,relative viability,NCI-H1651; first compound 0.8 µM,0.383
same,relative viability,NCI-H1651; first compound 2.53 µM,0.389
same,relative viability,LCLC-103H; first compound 0.08 µM,0.869
same,relative viability,LCLC-103H; first compound 0.253 µM,0.719
same,relative viability,LCLC-103H; first compound 0.8 µM,0.792
same,relative viability,LCLC-103H; first compound 2.53 µM,0.68
same,relative viability,NCI-H2087; first compound 0.08 µM,1.29
same,relative viability,NCI-H2087; first compound 0.253 µM,1.2
same,relative viability,NCI-H2087; first compound 0.8 µM,1.22
same,relative viability,NCI-H2087; first compound 2.53 µM,1.31
same,relative viability,A-427; first compound 0.08 µM,0.816
same,relative viability,A-427; first compound 0.253 µM,0.684
same,relative viability,A-427; first compound 0.8 µM,0.706
same,relative viability,A-427; first compound 2.53 µM,0.696
same,relative viability,201T; first compound 0.08 µM,0.781
same,relative viability,201T; first compound 0.253 µM,0.497
same,relative viability,201T; first compound 0.8 µM,0.724
same,relative viability,201T; first compound 2.53 µM,0.64
same,relative viability,NCI-H596; first compound 0.08 µM,0.918
same,relative viability,NCI-H596; first compound 0.253 µM,0.896
same,relative viability,NCI-H596; first compound 0.8 µM,1.02
same,relative viability,NCI-H596; first compound 2.53 µM,1.02
same,relative viability,NCI-H358; first compound 0.08 µM,0.476
same,relative viability,NCI-H358; first compound 0.253 µM,0.438
same,relative viability,NCI-H358; first compound 0.8 µM,0.344
same,relative viability,NCI-H358; first compound 2.53 µM,0.448
same,relative viability,NCI-H3122; first compound 0.08 µM,1.01
same,relative viability,NCI-H3122; first compound 0.253 µM,0.964
same,relative viability,NCI-H3122; first compound 0.8 µM,0.9
same,relative viability,NCI-H3122; first compound 2.53 µM,0.573
same,relative viability,BEN; first compound 0.08 µM,0.629
same,relative viability,BEN; first compound 0.253 µM,0.651
same,relative viability,BEN; first compound 0.8 µM,0.619
same,relative viability,BEN; first compound 2.53 µM,0.597
same,relative viability,LXF-289; first compound 0.08 µM,1.16
same,relative viability,LXF-289; first compound 0.253 µM,1.04
same,relative viability,LXF-289; first compound 0.8 µM,1.1
same,relative viability,LXF-289; first compound 2.53 µM,1.21
same,relative viability,HCC-44; first compound 0.08 µM,0.899
same,relative viability,HCC-44; first compound 0.253 µM,0.89
same,relative viability,HCC-44; first compound 0.8 µM,0.953
same,relative viability,HCC-44; first compound 2.53 µM,0.872
